Structures can show the parent of a compound that is named as a salt.
Legend:
[1] = tested on: NCI-H292 lung cancer cells; assay: FDA drug screening, complete media vs cholesterol-free media without statin (TABLE 1); format: cell-based, human
[2] = tested on: NCI-H292 lung cancer cells; assay: FDA drug screening, complete media vs cholesterol-free media with simvastatin (TABLE 2); format: cell-based, human; details: for Cholesterol-free media + simvastatin (0.04 μM) / Complete Media: NCI-H292 cells
[3] = Complete minus Cholesterol-free, >0 enhanced anti-cancer activity, about 0 neutral, <0 antagonist
[4] = NCI-H292 cells, cholesterol-free media without statin, FDA drug library screen
[5] = NCI-H292 cells, complete media, FDA drug library screen
[6] = cholesterol-free media with simvastatin 0.04 μM, cell growth value in FDA drug screen
[7] = complete media, cell growth value in FDA drug screen
[8] = complete media minus cholesterol-free media + simvastatin, >0 enhanced anti-cancer activity, about 0 neutral, <0 antagonist
[9] = NCI-H292 cells, cholesterol-free media without statin
[10] = complete vs cholesterol-free media, greater than 0 enhanced anti-cancer activity, about 0 neutral, below 0 antagonists
[11] = FDA drug library screen, cholesterol-free media with simvastatin 0.04 μM
[12] = FDA drug library screen, complete media
[13] = complete media vs cholesterol-free media + simvastatin (0.04 μM), >0 enhanced anti-cancer activity, about 0 neutral, <0 antagonist
[14] = FDA library drug in cholesterol-free media with simvastatin 0.04 μM
[15] = FDA library drug in complete media
[16] = Complete minus Cholesterol-free, […]
[17] = cholesterol-free media with simvastatin 0.04 μM, FDA drug library screen (TABLE 2)
[18] = complete media, FDA drug library screen (TABLE 2)
[19] = complete media minus cholesterol-free media + simvastatin (0.04 μM), >0 enhanced anti-cancer activity, about 0 neutral, <0 antagonist
[20] = Complete minus Cholesterol-free, greater than 0 enhanced anti-cancer activity, about 0 neutral, below 0 antagonists
[21] = NCI-H292 cells in cholesterol-free media without statin

Fc1ccc(C(c2ccc(F)cc2)N2CCN(C/C=C/c3ccccc3)CC2)cc1 [Flunarizine (dihydrochloride)]
Difference [1, 3]: 0.07 | Cholesterol-free [1, 4]: 0.971 | Complete [1, 5]: 1.036 | Cholesterol-free media + simvastatin (0.04 μM) [2, 6]: 0.8172 | Complete Media [2, 7]: 0.8617 | Difference [2, 8]: 0.04

c1cc(CN2CCCNCCNCCCNCC2)ccc1CN1CCCNCCNCCCNCC1 [Plerixafor]
Cholesterol-free [1, 9]: 1.296 | Complete ([1]; NCI-H292 cells, complete media): 0.935 | Difference [1, 10]: −0.36 | Cholesterol-free media + simvastatin (0.04 μM) [2, 11]: 1.17 | Complete Media [2, 12]: 1.011 | Difference [2, 13]: −0.16

O=C(C1CCCCC1)N1CC(=O)N2CCc3ccccc3C2C1 (stereo not shown) [Praziquantel]
Cholesterol-free [1, 9]: 1.485 | Complete ([1]; NCI-H292 cells, complete media): 1.043 | Difference [1, 10]: −0.44 | Cholesterol-free media + simvastatin (0.04 μM) [2, 14]: 1.644 | Complete Media [2, 15]: 1.108 | Difference [2, 13]: −0.54

Vincristine (sulfate)
Difference [1, 16]: 0.02 | Cholesterol-free [1, 4]: 0.04497 | Complete [1, 5]: 0.06722 | Cholesterol-free media + simvastatin (0.04 μM) [2, 17]: 0.1488 | Complete Media [2, 18]: 0.1119 | Difference ([2]; complete media minus cholesterol-free media + simvastatin (0.04 μM), […]): −0.04

CCCN(CCc1cccs1)[C@H]1CCc2c(O)cccc2C1 [Rotigotine]
Difference [1, 3]: 0.07 | Cholesterol-free [1, 4]: 0.9004 | Complete [1, 5]: 0.9685 | Cholesterol-free media + simvastatin (0.04 μM) [2, 17]: 1.128 | Complete Media [2, 18]: 1.07 | Difference [2, 19]: −0.06

Ibutilide (fumarate)
Difference [1, 20]: −1.13 | Cholesterol-free [1, 21]: 1.969 | Complete ([1]; NCI-H292 cells in complete media): 0.8391 | Cholesterol-free media + simvastatin (0.04 μM) [2, 17]: 1.045 | Difference [2, 19]: −0.02

O[C@@H]1CO[C@H]2[C@@H]1OC[C@@H]2O [Isosorbide]
Difference [1, 3]: −0.05 | Cholesterol-free [1, 4]: 1.174 | Complete [1, 5]: 1.123 | Cholesterol-free media + simvastatin (0.04 μM) [2, 11]: 0.9214 | Complete Media [2, 12]: 1.515 | Difference [2, 8]: 0.59

CC1(C)[C@@H](O[C@H]2O[C@H](C(=O)O)[C@@H](O)[C@H](O)[C@H]2O[C@@H]2O[C@H](C(=O)O)[C@@H](O)[C@H](O)[C@H]2O)CC[C@]2(C)[C@H]3C(=O)C=C4[C@@H]5C[C@@](C)(C(=O)O)CC[C@]5(C)CC[C@@]4(C)[C@]3(C)CC[C@@H]12 [Glycyrrhizic acid]
Difference ([1]; Complete minus Cholesterol-free, greater than 0 enhanced anti-cancer activity, about 0 neutral, below 0 antagonist): −0.08 | Cholesterol-free ([1]; NCI-H292 cells, FDA drug library screen, cholesterol-free media without statin): 1.146 | Complete ([1]; NCI-H292 cells, FDA drug library screen, complete media): 1.061 | Cholesterol-free media + simvastatin (0.04 μM) [2, 11]: 1.042 | Complete Media [2, 12]: 0.907 | Difference [2, 13]: −0.13

COc1c(N2CCNC(C)C2)c(F)cc2c(=O)c(C(=O)O)cn(C3CC3)c12 (stereo not shown) [Gatifloxacin]
Cholesterol-free [1, 4]: 1.137 | Complete [1, 5]: 1.266 | Difference ([1]; complete vs cholesterol-free media, >0 enhanced anti-cancer activity, about 0 neutral, <0 antagonist): 0.13 | Cholesterol-free media + simvastatin (0.04 μM) [2, 6]: 0.9418 | Complete Media [2, 7]: 1.02 | Difference [2, 8]: 0.08

CO[C@H]1C[C@@H]2CC[C@@H](C)[C@@](O)(O2)C(=O)C(=O)N2CCCC[C@H]2C(=O)O[C@H]([C@H](C)C[C@@H]2CC[C@@H](OCCO)[C@H](OC)C2)CC(=O)[C@H](C)/C=C(\C)[C@@H](O)[C@@H](OC)C(=O)[C@H](C)C[C@H](C)/C=C/C=C/C=C/1C [Everolimus]
Difference [1, 3]: −0.23 | Cholesterol-free [1, 9]: 0.8236 | Complete ([1]; NCI-H292 cells, complete media): 0.5968 | Cholesterol-free media + simvastatin (0.04 μM) [2, 17]: 0.3946 | Complete Media [2, 18]: 0.373 | Difference [2, 19]: −0.02

Alverine (citrate)
Difference [1, 20]: −0.59 | Cholesterol-free [1, 21]: 1.703 | Cholesterol-free media + simvastatin (0.04 μM) [2, 11]: 0.4761 | Complete Media [2, 12]: 1.128 | Difference [2, 8]: 0.65

CCOC(=O)[C@H](CCc1ccccc1)N[C@@H](C)C(=O)N1Cc2cc(OC)c(OC)cc2C[C@H]1C(=O)O [Moexipril (hydrochloride)]
Difference [1, 3]: 0.02 | Cholesterol-free [1, 4]: 1.004 | Complete [1, 5]: 1.024 | Cholesterol-free media + simvastatin (0.04 μM) [2, 14]: 1.452 | Complete Media [2, 15]: 1.081 | Difference [2, 13]: −0.37

Cc1cc(CC(C)CC(C)(C)C)n(O)c(=O)c1.NCCO (stereo not shown) [Piroctone olamine]
Difference [1, 3]: −0.05 | Cholesterol-free [1, 4]: 0.04765 | Complete [1, 5]: 0.0002612 | Cholesterol-free media + simvastatin (0.04 μM) [2, 6]: 0 | Complete Media [2, 7]: 0.02737 | Difference [2, 8]: 0.03

CC(=O)Oc1cc(C)c(OC(C)=O)c2ccccc12 [Vitamin K4]
Difference [1, 16]: −0.21 | Cholesterol-free [1, 9]: 0.9817 | Complete ([1]; NCI-H292 cells, complete media): 0.7726 | Cholesterol-free media + simvastatin (0.04 μM) ([2]; cholesterol-free media with simvastatin 0.04 μM, […]): 0.7559 | Complete Media ([2]; complete media, […]): 0.8779 | Difference ([2]; complete media minus cholesterol-free media + simvastatin, […]): 0.12
